Assay results as given in ChEMBL document CHEMBL5096160, “Targeting SHP2 as a therapeutic strategy for inflammatory diseases” (Eur J Med Chem, 2021).
pIC50: −log10 of the molar value. In brackets after ≈: the same amount, converted by molar mass. Blank lines part the entries; values can stand above or below the compound they belong to.

Legend:
[1] = biological target: T1, Tyrosine-protein phosphatase non-receptor type 11 (Homo sapiens, UniProt Q06124); assay: Inhibition of recombinant human GST-tagged SHP2 expressed in Escherichia coli BL21 incubated for 30 mins by DiFMUP fluorescence assay
T1 sequence (Q06124 whole entry): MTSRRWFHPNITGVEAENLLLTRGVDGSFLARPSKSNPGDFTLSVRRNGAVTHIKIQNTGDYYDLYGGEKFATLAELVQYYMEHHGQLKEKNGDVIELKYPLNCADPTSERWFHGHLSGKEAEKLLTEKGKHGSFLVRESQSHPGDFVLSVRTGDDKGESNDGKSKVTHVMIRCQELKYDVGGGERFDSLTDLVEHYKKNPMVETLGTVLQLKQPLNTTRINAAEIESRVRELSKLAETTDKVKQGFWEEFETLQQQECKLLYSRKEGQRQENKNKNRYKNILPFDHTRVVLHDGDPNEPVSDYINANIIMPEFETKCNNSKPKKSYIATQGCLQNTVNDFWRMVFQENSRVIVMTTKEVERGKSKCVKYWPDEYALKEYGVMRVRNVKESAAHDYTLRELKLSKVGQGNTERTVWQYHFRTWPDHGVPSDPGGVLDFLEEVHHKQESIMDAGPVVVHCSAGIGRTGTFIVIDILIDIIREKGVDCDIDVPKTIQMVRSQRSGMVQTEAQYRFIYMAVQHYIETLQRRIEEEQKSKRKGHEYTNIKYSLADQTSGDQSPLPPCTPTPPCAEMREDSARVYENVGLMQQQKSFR

[2] = test system: A549; assay: Antiproliferative activity against human A549 cells assessed as inhibition of cell growth measured after 72 hrs by CCK-8 assay; format: functional, cell-based; settings: A549, 72 h
[3] = biological target: T1, Tyrosine-protein phosphatase non-receptor type 11; assay: Inhibition of N-terminal 6His-tagged full-length H2N-VE(pY)LDLDLD(PEG8)RVD(pY)VVVDQQ-amide-activated SHP2 (247 to 529 residues) (unknown origin) expressed in Escherichia coli BL21 (DE3) using DiFMUP as substrate preincubated for 10 to 30 mins with activating peptide prior to compound addition for 30 mins followed by substrate addition and measured for 6 mins by fluorescence based assay
[4] = test system: SW1463; assay: Cytotoxicity against human SW1463 cells assessed as inhibition of cell growth incubated for 120 hrs by MTT assay; format: functional, cell-based; settings: SW1463, 120 h
[5] = biological target: T2, Tyrosine-protein phosphatase non-receptor type 11 (Homo sapiens) (UniProt Q06124); assay: Inhibition of SHP2 in human LS180 cells; format: cell-based
T2 sequence (whole entry): T1 sequence (Q06124 whole entry)

[6] = biological target: Tyrosine-protein phosphatase non-receptor type 11 (Mus musculus, UniProt P35235); assay: Inhibition of SHP2 in mouse EMT6 cells harboring SOS1 mutation; format: cell-based
Sequence of Tyrosine-protein phosphatase non-receptor type 11 (Mus musculus, UniProt P35235) (P35235 2-593 limits assumed, stated change not applied): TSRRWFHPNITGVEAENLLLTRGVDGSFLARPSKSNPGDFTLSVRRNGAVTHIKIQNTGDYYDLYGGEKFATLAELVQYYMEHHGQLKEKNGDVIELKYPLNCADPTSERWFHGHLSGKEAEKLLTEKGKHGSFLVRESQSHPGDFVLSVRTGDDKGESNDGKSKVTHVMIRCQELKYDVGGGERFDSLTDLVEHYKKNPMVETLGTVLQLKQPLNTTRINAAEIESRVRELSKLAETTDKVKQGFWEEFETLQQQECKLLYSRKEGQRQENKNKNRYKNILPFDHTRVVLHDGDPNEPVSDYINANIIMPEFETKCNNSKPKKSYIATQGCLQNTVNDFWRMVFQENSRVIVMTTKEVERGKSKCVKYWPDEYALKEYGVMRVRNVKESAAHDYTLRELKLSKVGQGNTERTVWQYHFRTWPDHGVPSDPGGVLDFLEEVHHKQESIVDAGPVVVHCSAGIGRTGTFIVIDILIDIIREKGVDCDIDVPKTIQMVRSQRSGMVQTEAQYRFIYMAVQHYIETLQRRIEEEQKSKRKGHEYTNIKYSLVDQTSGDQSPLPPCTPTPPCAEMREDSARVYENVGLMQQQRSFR

[7] = biological target: T1, Tyrosine-protein phosphatase non-receptor type 11; assay: Inhibition of human recombinant SHP2 expressed in Escherichia coli using p-nitrophenyl phosphate as substrate preincubated for 2 mins followed by substrate addition by microplate spectrophotometer analysis
[8] = biological target: T1, Tyrosine-protein phosphatase non-receptor type 11; assay: Inhibition of human SHP2 catalytic domain expressed in Escherichia coli using p-nitrophenyl phosphate as substrate by spectrophotometric method
[9] = biological target: T1, Tyrosine-protein phosphatase non-receptor type 11; assay: Inhibition of GST-tagged SHP2 (unknown origin) using 8-difluoro-4-methylumbelliferyl phosphate as a substrate measured after 30 mins by fluorescence based analysis
[10] = biological target: T2, Tyrosine-protein phosphatase non-receptor type 11 (Homo sapiens); assay: Inhibition of recombinant SHP2 (unknown origin)
[11] = biological target: T1, Tyrosine-protein phosphatase non-receptor type 11; assay: Inhibition of N-terminal hexaHis-tagged catalytic domain of human SHP2 (248 to 527 residues) expressed as Escherichia coli Rosetta (DE3) using DiFMUP as substrate preincubated for 1 hr followed by substrate addition by fluorescence based analysis
[12] = test system: BaF3; assay: Cytotoxicity against mouse BaF3 cells assessed as inhibition of cell proliferation incubated for 48 hrs by MTT assay; format: functional, cell-based; settings: BaF3, 48 h
[13] = Cytotoxicity against human LN-444 cells assessed as reduction in cell viability incubated for 72 hrs by WST-1 assay; format: functional, cell-based; settings: LN-444, 72 h
[14] = test system: Capan-2; assay: Cytotoxicity against human Capan-2 cells harbouring K-ras mutant assessed as reduction in cell viability incubated for 144 hrs; format: functional, cell-based; settings: Capan-2, 144 h
[15] = biological target: T1, Tyrosine-protein phosphatase non-receptor type 11; assay: Inhibition of SHP2 (unknown origin) using EFpYAEVGRSPPDPAK incubated for 0.5 hrs by malachite green reagent based assay
[16] = biological target: Tyrosine-protein phosphatase non-receptor type 6 (Homo sapiens) (UniProt P29350); assay: Inhibition of SHP1 (unknown origin) using EFpYAEVGRSPPDPAK incubated for 0.5 hrs by malachite green reagent assay
Sequence of Tyrosine-protein phosphatase non-receptor type 6 (Homo sapiens) (P29350 whole entry): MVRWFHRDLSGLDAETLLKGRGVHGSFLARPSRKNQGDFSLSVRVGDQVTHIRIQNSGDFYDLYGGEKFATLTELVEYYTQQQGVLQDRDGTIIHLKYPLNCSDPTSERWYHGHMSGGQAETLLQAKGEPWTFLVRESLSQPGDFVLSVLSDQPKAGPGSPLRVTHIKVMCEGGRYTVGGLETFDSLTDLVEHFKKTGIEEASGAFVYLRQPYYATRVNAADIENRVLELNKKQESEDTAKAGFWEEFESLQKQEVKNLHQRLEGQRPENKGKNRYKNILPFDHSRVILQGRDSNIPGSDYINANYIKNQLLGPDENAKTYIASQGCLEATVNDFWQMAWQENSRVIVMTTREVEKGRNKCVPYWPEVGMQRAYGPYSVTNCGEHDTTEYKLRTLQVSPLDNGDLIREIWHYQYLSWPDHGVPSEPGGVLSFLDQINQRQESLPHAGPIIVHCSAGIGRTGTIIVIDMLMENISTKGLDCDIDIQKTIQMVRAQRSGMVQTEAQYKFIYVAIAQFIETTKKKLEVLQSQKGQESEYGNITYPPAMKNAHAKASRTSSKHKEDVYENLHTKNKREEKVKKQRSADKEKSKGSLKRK

Compound: CC(=O)O[C@H]1CC[C@]2(C)c3c(O)c4c(c(O)c3C(=O)CC2C1(C)C)C[C@H](C)O4 (some centres undefined)
pIC50 [1]: 5.06
pIC50 [2]: 4.97

Compound: N[C@@H]1COCC12CCN(c1cnc3c(Sc4cccc(Cl)c4Cl)n[nH]c3n1)CC2
pIC50 [3]: 8.68
pIC50 [4]: 6.23
MIC [5]: 10 µM (≈ 4.51 µg/mL)

Compound: O=C1/C(=N/Nc2ccc(S(=O)(=O)O)cc2)C(c2ccc([N+](=O)[O-])cc2)=NN1c1ccc([N+](=O)[O-])cc1
pIC50 [11]: 7.15

Compound: CC1(N)CCN(c2cnc(-c3cccc(Cl)c3Cl)c(N)n2)CC1
pIC50 [12]: 4.70
pIC50 [13]: 4.42
pIC50 [14]: 4.80

Compound: NCC1CCN(c2ncc(-c3cccc(Cl)c3Cl)cc2CO)CC1
pIC50 [15]: 5.87
IC5 [16]: 100 µM
pIC50 [12]: 5.63

Now from value to compound:

pIC50 [6]: 8.15
Compound: Cc1nc(N2CCC3(CC2)CO[C@@H](C)[C@H]3N)c(CO)nc1-c1cccc(Cl)c1Cl

pIC50 [7]: 5.37
Compound: CCOC(=O)c1sc(-c2ccc([N+](=O)[O-])cc2)nc1COc1ccc(Cl)cc1

pIC50 [8]: 6.10
Compound: CCCCCCCCCCCC(=O)C1=C2C3=COC(C)=CC3=CC(=O)[C@]2(C)OC1=O

pIC50 [9]: 4.72
Compound: C/C(=C\[C@H](O)C[C@@H](C)[C@H]1CC[C@@]2(C)[C@@H]3CC[C@H]4C(C)(C)[C@@H](O)CC[C@@]45C[C@@]35CC[C@]12C)C(=O)O

IC5 [10]: 1.1 µM
Compound: O=C(O)c1ccccc1-c1ccc(/C=c2/sc3nc4cc(Br)cnc4n3c2=O)o1

pIC50 [7]: 6.00
Compound: CCOC(=O)c1sc(-c2ccc(OC)cc2)nc1COc1ccc(Cl)cc1

pIC50 [8]: 6.15
Compound: CCCCCCCCCC[C@@H](C)C(=O)C1=C2C3=COC(C)=CC3=CC(=O)[C@]2(C)OC1=O
